Data from US20100210649A1, “PYRIDAZINONES AND FURAN-CONTAINING COMPOUNDS” (Sloan-Kettering Institute for Cancer Research, priority 2006, published 2010).
Where two headings read alike, the source gives them in different places.

How the values were obtained:
Format in all cases: cell-based, human
Conditions in all cases: for inhibition at 10 µM: Homo sapiens
H3255 = test: Non Small Cell Lung Cancer proliferation assay (Alamar Blue reduction), H3255
Method: (§1) These cells have a doubling time of 1-2 days. All cell types are adherent and grow in colonies. The cells should be kept at a density between 50,000 cells/mL -500,000 cells/mL to provide for optimum growth and adequate nutrition. The cell line should be maintained at 37° C. in a humidified atmosphere with 5% CO2 in a sterile cell culture incubator.
(§2) Non Small Cell Lung Cancer Proliferation Assay.
(§3) High Controls for this assay are made by treating Non Small Cell Lung Cancer cells with 5 ul of 10% DMSO. [Final concentration in this assay is 1% DMSO].
(§4) Important Note: All compounds for testing in this assay should be done at the final concentration of 1% DMSO.
(§5) After addition, the cells are placed in cell culture incubator at 37° C. for 48 hours for complete treatment.
(§6) After drug treatment, cytotoxicity is measured by Alamar Blue reduction.
(§7) The cells are incubated for 48 hours at 37° C. to complete the Alamar Blue reduction.
(§8) The final step in the assay is to measure the amount of Alamar Blue reduction. […] The Alamar Blue fluorescence is measured at an excitation of 530 nm and emission of 590 nm.
(§9) For the NSCLC project, the cell based assay was screened against a small molecule library of approximately 200,000 compounds. The compound library is stored in our automated robotic freezer (Biophile) at −20° C. in 100% DMSO. Compound freeze and thaw cycles are kept to a minimum. […] This assay was performed on a fully automated linear track robotic platform (CRS F3 Robot System, Thermo Electron Corp., Ontario, Canada) utilizing several integrated peripherals for plate handling, liquid dispensing, and readout detection. […] The microplates are then placed at 37° C. for 48 hours to complete treatment of cells with compounds. Next, 5 ul of alamar blue was added using a liquid dispenser (Flexprop Precision Dispenser, Perkin Elmer, Mass., USA) and incubated for 48 hours at 37° C. The alamar blue prompt fluorescence was measured on Victor V (Victor^3 V, Perkin Elmer, Mass., USA) and output data files were loaded into ORIS (Oncology Research Informatics System, MSKCC, NY, USA), a screening data acquisition and analysis platform.
(§10) The dose response studies were done with the following standard procedure. First, the cells were counted and dispensed at 250 cells/well into 384-well microplates with compound. The cells were incubated for 48 hours at 37 C to complete treatment, and then alamar blue was added for an additional 48 hours. Finally, alamar blue reduction was measured and the data was loaded into ORIS, our data screening acquisition platform.

H1975 = test: Non Small Cell Lung Cancer proliferation assay (Alamar Blue reduction), H1975
Method: as §1, §2, §3, §4, §5, §6, §7, §8, §9, §10

H2030 = test: Non Small Cell Lung Cancer proliferation assay (Alamar Blue reduction), H2030
Method: as §1, §2, §3, §4, §5, §6, §7, §8, §9, §10

H1650 = test: Non Small Cell Lung Cancer proliferation assay (Alamar Blue reduction), H1650
Method: as §1, §2, §3, §4, §5, §6, §7, §8, §9, §10

[1] = NCI-H3255, primary screening, 10 μM compound in 1% DMSO (v/v), read-out: percentage inhibition H3255
[2] = NCI-H1975, primary screening, 10 μM compound in 1% DMSO (v/v), read-out: percentage inhibition H1975
[3] = NCI-H2030, primary screening, 10 μM compound in 1% DMSO (v/v), read-out: percentage inhibition H2030
[4] = NCI-H1650, primary screening, 10 μM compound in 1% DMSO (v/v), read-out: percentage inhibition H1650
[5] = NCI-H3255, primary screening, H3255, 10 μM compound in 1% DMSO (v/v), read-out: PRIMARY HTS [%] H3255 (percentage inhibition)
[6] = NCI-H1975, primary screening, H1975, 10 μM compound in 1% DMSO (v/v), read-out: PRIMARY HTS [%] H1975 (percentage inhibition)
[7] = NCI-H2030, primary screening, H2030, 10 μM compound in 1% DMSO (v/v), read-out: PRIMARY HTS [%] H2030 (percentage inhibition)
[8] = NCI-H1650, primary screening, H1650, 10 μM compound in 1% DMSO (v/v), read-out: PRIMARY HTS [%] H1650 (percentage inhibition)
[9] = primary screening, 10 μM compound in 1% DMSO (v/v)

SMILES: COc1ccc(-n2nc(Cl)ccc2=O)cc1 [compound 194491]
- inhibition at 10 µM (H3255; [1]): -32%
- inhibition at 10 µM (H1975; [2]): 0%
- inhibition at 10 µM (H2030; [3]): -12%
- inhibition at 10 µM (H1650; [4]): -2%

SMILES: O=c1c(SCc2ccccc2)c(Cl)cnn1-c1ccccc1 [compound 182827]
- inhibition at 10 µM (H3255; [1]): -24%
- inhibition at 10 µM (H1975; [2]): 14%
- inhibition at 10 µM (H2030; [3]): -6%
- inhibition at 10 µM (H1650; [4]): -20%

SMILES: CSc1cnn(-c2ccccc2)c(=O)c1SCc1ccccc1 [compound 224764]
- inhibition at 10 µM (H3255; [1]): -32%
- inhibition at 10 µM (H1975; [2]): -5%
- inhibition at 10 µM (H2030; [3]): -10%
- inhibition at 10 µM (H1650; [4]): 21%

SMILES: Cc1ccc(C(=O)Nc2ccc3ccccc3c2)o1 [compound 105503]
- inhibition at 10 µM (H3255; [5]): 0%
- inhibition at 10 µM (H1975; [6]): -13%
- inhibition at 10 µM (H2030; [7]): -7%
- inhibition at 10 µM (H1650; [8]): -10%

SMILES: CCc1ccccc1NC(=O)c1ccc([N+](=O)[O-])o1 [compound 103960]
- inhibition at 10 µM (H3255; [5]): 68%
- inhibition at 10 µM (H1975; [6]): 41%
- inhibition at 10 µM (H2030; [7]): 73%
- inhibition at 10 µM (H1650; [8]): 62%

SMILES: Cc1ccc(-n2nc(C(=O)O)c(/C=C/c3ccc(Cl)cc3Cl)c(C#N)c2=O)cc1C [compound 227626]
- inhibition at 10 µM (H3255; [1]): 71%
- inhibition at 10 µM (H1975; [2]): -14%
- inhibition at 10 µM (H2030; [3]): 0%
- inhibition at 10 µM (H1650; [4]): -15%

SMILES: O=c1c(Cl)c(N2CCN(CCO)CC2)cnn1-c1cccc(Cl)c1 [compound 194617]
- inhibition at 10 µM (H3255; [1]): -5%
- inhibition at 10 µM (H1975; [2]): 9%
- inhibition at 10 µM (H2030; [3]): -4%
- inhibition at 10 µM (H1650; [4]): -9%

SMILES: O=C(Nc1ccc(N2CCN(Cc3ccccc3)CC2)cc1)c1ccco1 [compound 93911]
- inhibition at 10 µM (H3255; [5]): -1%
- inhibition at 10 µM (H1975; [6]): -22%
- inhibition at 10 µM (H2030; [7]): -3%
- inhibition at 10 µM (H1650; [8]): -4%

SMILES: O=C(Nc1ccc(I)cc1)c1ccc([N+](=O)[O-])o1 [compound 103710]
- inhibition at 10 µM (H3255; NCI-H3255, read-out: PRIMARY HTS [%] H3255 (percentage inhibition)): 4%
- inhibition at 10 µM (H1975; NCI-H1975, read-out: PRIMARY HTS [%] H1975 (percentage inhibition)): 17%
- inhibition at 10 µM (H2030; NCI-H2030, read-out: PRIMARY HTS [%] H2030 (percentage inhibition)): -5%
- inhibition at 10 µM (H1650; NCI-H1650, read-out: PRIMARY HTS [%] H1650 (percentage inhibition)): 33%

SMILES: O=c1c2c(cnn1-c1ccccc1)SCCS2 [compound 195988]
- inhibition at 10 µM (H3255; [1]): -18%
- inhibition at 10 µM (H1975; [2]): -7%
- inhibition at 10 µM (H2030; [3]): 7%
- inhibition at 10 µM (H1650; [4]): 13%

SMILES: O=c1c2c(cnn1-c1ccccc1)SC(c1ccccc1)S2 (centres unmarked) [compound 182826]
- percentage inhibition H3255 (H3255; [9]): −13%
- percentage inhibition H1975 (H1975; [9]): 12%
- percentage inhibition H2030 (H2030; [9]): −11%
- percentage inhibition H1650 (H1650; [9]): 13%

SMILES: COc1ccc(-n2nc(-n3cnc4ccccc43)c(C)c(C#N)c2=O)cc1 [compound 176963]
- inhibition at 10 µM (H3255; [1]): 17%
- inhibition at 10 µM (H1975; [2]): -5%
- inhibition at 10 µM (H2030; [3]): 4%
- inhibition at 10 µM (H1650; [4]): 11%

SMILES: O=C(Cc1ccccc1)Oc1ccc(=O)n(-c2ccccc2)n1 [compound 180651]
- inhibition at 10 µM (H3255; [1]): 35%
- inhibition at 10 µM (H1975; [2]): 13%
- inhibition at 10 µM (H2030; [3]): 11%
- inhibition at 10 µM (H1650; [4]): 21%

SMILES: Cc1ccc(-n2nc(C#N)c(-c3ccccc3)c(C#N)c2=O)cc1 [compound 224358]
- inhibition at 10 µM (H3255; [1]): -14%
- inhibition at 10 µM (H1975; [2]): -9%
- inhibition at 10 µM (H2030; [3]): -2%
- inhibition at 10 µM (H1650; [4]): -4%

SMILES: COc1cnn(-c2ccc(C)cc2)c(=O)c1SCc1ccccc1 [compound 208694]
- inhibition at 10 µM (H3255; [1]): -16%
- inhibition at 10 µM (H1975; [2]): -29%
- inhibition at 10 µM (H2030; [3]): 3%
- inhibition at 10 µM (H1650; [4]): -21%

SMILES: O=c1c(SCc2ccccc2)c(N2CCOCC2)cnn1-c1ccccc1 [compound 224770]
- inhibition at 10 µM (H3255; [1]): 24%
- inhibition at 10 µM (H1975; [2]): -8%
- inhibition at 10 µM (H2030; [3]): -8%
- inhibition at 10 µM (H1650; [4]): 65%

SMILES: CSc1cnn(-c2ccccc2)c(=O)c1Cl [compound 104185]
- inhibition at 10 µM (H3255; [1]): 1%
- inhibition at 10 µM (H1975; [2]): 22%
- inhibition at 10 µM (H2030; [3]): -2%
- inhibition at 10 µM (H1650; [4]): -9%
